Measurements as given in patent US20250179073A1, “TRICYCLIC HETEROCYCLE COMPOUNDS AS IAP ANTAGONISTS” (Ascentage Pharma (Suzhou) Co., Ltd., priority 2022, published 2025).
pIC50: −log10 of the molar value.

Columns and labels:
MDA-MB-231 cells = assay: Cell proliferation assay (CellTiter-Glo), MDA-MB-231; format: cell-based; conditions: Homo sapiens, MDA-MB-231, 72 h, 72 h treatment, Celltiter-Glo luminescence
Outline: (§1)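 Compounds tested over ten concentrations ([…]) for 72 h on EVSA-T cells in MEM/10% FBS and MDA-MB-231 cells in RPMI-1640/10% FBS, seeded at 10000/well. Luminescent CellTiter-Glo readout; IC50 fitted after normalisation to controls.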

EVSA-T cells = assay: Cell proliferation assay (CellTiter-Glo), EVSA-T; format: cell-based; conditions: Homo sapiens, EVSA-T, 72 h, 72 h treatment, Celltiter-Glo luminescence
Outline: as §1

pIC50 (MDA-MB-231 cells)	SMILES	pIC50 (EVSA-T cells)
7.08	C[C@@H]1CN(CC(=O)N2CC(C)(C)c3c2cc(Cc2ccc(F)cc2)n2ncnc32)[C@@H](CN2CCOC[C@H]2C)CN1 [Example 25, 1-(5-(4-fluorobenzyl)-9,9-dimethyl-8,9-dihydro-7H-pyrrolo[3,2-c][1,2,4]triazolo[1,5-a]pyridin-7-yl)-2-((2R,5R)-5-methyl-2-(((R)-3-methylmorpholino)methyl)piperazin-1-yl)ethan-1-one]	7.96
7.00	CC(=O)Nc1nc2c(Cc3ccc(F)cc3)cc3c(n2n1)C(C)(C)CN3C(=O)CN1C[C@@H](C)NC[C@@H]1CN1CCOC[C@H]1C [Example 29, N-(4-(4-fluorobenzyl)-8,8-dimethyl-6-(2-((2R,5R)-5-methyl-2-(((R)-3-methylmorpholino)methyl)piperazin-1-yl)acetyl)-7,8-dihydro-6H-pyrrolo[2,3-e][1,2,4]triazolo[1,5-a]pyridin-2-yl)acetamide]	8.00
7.80	C[C@@H]1CN(CC(=O)N2CC(C)(C)c3c2cc(Cc2ccc(F)cc2)c2nc(N)nn32)[C@@H](CN2CCOC[C@H]2C)CN1 [Example 30, 1-(2-amino-4-(4-fluorobenzyl)-8,8-dimethyl-7,8-dihydro-6H-pyrrolo[2,3-e][1,2,4]triazolo[1,5-a]pyridin-6-yl)-2-((2R,5R)-5-methyl-2-(((R)-3-methylmorpholino)methyl)piperazin-1-yl)ethan-1-one]	8.52
6.43	C[C@@H]1CN(CC(=O)N2CC(C)(C)c3c2cc(Cc2ccc(F)cc2)c2nc(C(N)=O)nn32)[C@@H](CN2CCOC[C@H]2C)CN1 [Example 31, 4-(4-fluorobenzyl)-8,8-dimethyl-6-(2-((2R,5R)-5-methyl-2-(((R)-3-methylmorpholino)methyl)piperazin-1-yl)acetyl)-7,8-dihydro-6H-pyrrolo[2,3-e][1,2,4]triazolo[1,5-a]pyridine-2-carboxamide]	8.52

Second part, the compound before the results:

SMILES	pIC50 (MDA-MB-231 cells)	pIC50 (EVSA-T cells)
CC(C)c1nnc2c(Cc3ccc(F)cc3)cc3c(n12)C(C)(C)CN3C(=O)CN1C[C@@H](C)NC[C@@H]1CN1CCOC[C@H]1C [Example 11, 1-(4-(4-fluorobenzyl)-1-isopropyl-8,8-dimethyl-7,8-dihydro-6H-pyrrolo[2,3-e][1,2,4]triazolo[4,3-a]pyridin-6-yl)-2-((2R,5R)-5-methyl-2-(((R)-3-methylmorpholino)methyl)piperazin-1-yl)ethan-1-one]	6.77	8.00
C[C@@H]1CN(CC(=O)N2CC(C)(C)c3c2cc(Cc2ccc(F)cc2)c2nnc(C4CC4)n32)[C@@H](CN2CCOC[C@H]2C)CN1 [Example 12, 1-(1-cyclopropyl-4-(4-fluorobenzyl)-8,8-dimethyl-7,8-dihydro-6H-pyrrolo[2,3-e][1,2,4]triazolo[4,3-a]pyridin-6-yl)-2-((2R,5R)-5-methyl-2-(((R)-3-methylmorpholino)methyl)piperazin-1-yl)ethan-1-one]	6.72	7.92
C[C@@H]1CN(CC(=O)N2CC(C)(C)c3c2cc(Cc2ccc(F)cc2)c2nnc(C(F)(F)F)n32)[C@@H](CN2CCOC[C@H]2C)CN1 [Example 13, 1-(4-(4-fluorobenzyl)-8,8-dimethyl-1-(trifluoromethyl)-7,8-dihydro-6H-pyrrolo[2,3-e][1,2,4]triazolo[4,3-a]pyridin-6-yl)-2-((2R,5R)-5-methyl-2-(((R)-3-methylmorpholino)methyl)piperazin-1-yl)ethan-1-one]	6.77	8.05
C[C@@H]1CN(CC(=O)N2CC(C)(C)c3c2cc(Cc2ccc(F)cc2)c2ncnn32)[C@@H](CN2CCOC[C@H]2C)CN1 [Example 14, 1-(4-(4-fluorobenzyl)-8,8-dimethyl-7,8-dihydro-6H-pyrrolo[2,3-e][1,2,4]triazolo[1,5-a]pyridin-6-yl)-2-((2R,5R)-5-methyl-2-(((R)-3-methylmorpholino)methyl)piperazin-1-yl)ethan-1-one]	7.38	8.22
C[C@@H]1CN(CC(=O)N2CC(C)(C)c3c2cc(Cc2ccc(F)cc2)c2nccn32)[C@@H](CN2CCOC[C@H]2C)CN1 [Example 17, 1-(4-(4-fluorobenzyl)-8,8-dimethyl-7,8-dihydro-6H-imidazo[1,2-a]pyrrolo[2,3-e]pyridin-6-yl)-2-((2R,5R)-5-methyl-2-(((R)-3-methylmorpholino)methyl)piperazin-1-yl)ethan-1-one]	6.92	8.40
CCOC(=O)c1cn2c3c(cc(Cc4ccc(F)cc4)c2n1)N(C(=O)CN1C[C@@H](C)NC[C@@H]1CN1CCOC[C@H]1C)CC3(C)C [Example 18, ethyl 4-(4-fluorobenzyl)-8,8-dimethyl-6-(2-((2R,5R)-5-methyl-2-(((R)-3-methylmorpholino)methyl)piperazin-1-yl)acetyl)-7,8-dihydro-6H-imidazo[1,2-a]pyrrolo[2,3-e]pyridine-2-carboxylate]	7.13	7.85
C[C@@H]1CN(CC(=O)N2CC(C)(C)c3c2cc(Cc2ccc(F)cc2)c2nc(CO)cn32)[C@@H](CN2CCOC[C@H]2C)CN1 [Example 19, 1-(4-(4-fluorobenzyl)-2-(hydroxymethyl)-8,8-dimethyl-7,8-dihydro-6H-imidazo[1,2-a]pyrrolo[2,3-e]pyridin-6-yl)-2-((2R,5R)-5-methyl-2-(((R)-3-methylmorpholino)methyl)piperazin-1-yl)ethan-1-one]	6.74	7.68
C[C@@H]1CN(CC(=O)N2CC(C)(C)c3c2cc(Cc2ccc(F)cc2)c2nc(C(N)=O)cn32)[C@@H](CN2CCOC[C@H]2C)CN1 [Example 20, 4-(4-fluorobenzyl)-8,8-dimethyl-6-(2-((2R,5R)-5-methyl-2-(((R)-3-methylmorpholino)methyl)piperazin-1-yl)acetyl)-7,8-dihydro-6H-imidazo[1,2-a]pyrrolo[2,3-e]pyridine-2-carboxamide]	6.96	7.89
C[C@@H]1CN(CC(=O)N2CC(C)(C)c3c2cc(Cc2ccc(F)cc2)c2nc(C#N)cn32)[C@@H](CN2CCOC[C@H]2C)CN1 [Example 21, 4-(4-fluorobenzyl)-8,8-dimethyl-6-(2-((2R,5R)-5-methyl-2-(((R)-3-methylmorpholino)methyl)piperazin-1-yl)acetyl)-7,8-dihydro-6H-imidazo[1,2-a]pyrrolo[2,3-e]pyridine-2-carbonitrile]	7.64	8.30
